In brackets after ≈: the same amount, converted by molar mass. Where a name gives a salt, the structure may show the parent alone. Read-outs that look alike come from different tables or passages of the source. Bridge positions count the residues as written; N and C are the ends. Square brackets hold non-standard residues; d marks the D form. Peptide text beside a SMILES is read from it. * marks the point of attachment. Decanoyl(3R-OH) = CCCCCCC[C@@H](O)CC(=O)*; dDab = NCC[C@@H](N)C(=O)O; Dab = NCC[C@H](N)C(=O)O
Columns and labels:
E. coli = experiment: microbe, parasite or virus in culture
Description: Bacteria were obtained from the American Type Culture Collection (ATCC; Manassas, VA, USA), Merck Sharp & Dohme (Kenilworth, NJ), the Coli Genetic Stock Center (CGSC, Yale University), Network on Antimicrobial Resistance in Staphylococcus aureus (NARSA) via BEI Resources (www.beiresources.org) and independent academic clinical isolate and mutant collections. All species used in this study were described fully in Table S4. Bacteria were cultured in Cation-Adjusted Mueller-Hinton Broth (CAMHB, Bacto Laboratories, Cat No. 212322) or Muller Hinton Broth (MHB, Bacto Laboratories, Cat No. 211443) at 37 °C overnight. A sample of each culture was then diluted 50-fold in MHB and incubated at 37 °C for 1.5–3 h. The stock solutions of vancomycin probes 7, 8 and 9 were prepared at 1.28 mg/mL in sterile water. The compounds were serially diluted two-fold across the wells, with concentrations ranging from 0.06 µg/mL to 128 µg/mL, plated in duplicate. […]

E. coli ATCC 25922 = experiment: Permeability test in Gram-negative bacteria, flow cytometry method (Fig. 4i); type: cell-based; settings: compound 0.125–128 µg/mL 1 h 37 °C, then probe 9 32 µg/mL 30 min
Description: E. coli ATCC 25922 cells were cultured in LB at 37 °C overnight. […] The resultant mid-log phase cultures were harvested and washed once with HBSS, then resuspended in HBSS to an OD600 of 1. Then 1 mL of the cultures were transferred to Eppendorf tubes and centrifuged. Solutions (1 mL) of antibiotics (0.125–128 µg /mL) and isopropanol (100 %) was added, then left for 1 h at 37 °C with shaking (180 rpm). […] Bacteria were washed again with HBSS, the pellets were suspended in 200 µL of HBSS, and 100 µL of the suspended bacteria solution was added into black 96-well plates (Black flat bottom, 96-Well plate, Corning, Cat No. CLS3915-100EA) for Tecan plate reader measurement (Tecan Plate Reader, Infinite M1000 Pro). Excitation: 475 nm; Emission: 550 nm. On the other hand, suspended bacteria solution was then diluted 1000-fold in HBSS for flow cytometer measurement (Cytoflex S, Beckman Coulter, Inc. 250 S. Kraemer Blvd. Brea, CA 92821 U.S.A.). The detector used here was FITC (Excitation 488 nm; Emission 525/40 nm). 40000 events were collected. The data was analysed using Kaluza Analysis 2.1 software (Beckman Coulter, Inc. 250 S. Kraemer Blvd. Brea, CA 92821 U.S.A.) and statistical software GraphPad Prism 8 (San Diego, CA, U.S.A.).

[1] = Table S2: CGSC7139 DC2 mutant, CaMHB, non-treated polystyrene plate
[2] = Table S2: CGSC7139 DC2 mutant, MHB, non-treated polystyrene plate
[3] = Table S2: MB4902 LpxC mutant, CaMHB, non-treated polystyrene plate
[4] = Table S2: MB4902 LpxC mutant, MHB, non-treated polystyrene plate
[5] = Table S2: ATCC 25922 FDA Control, CaMHB, non-treated polystyrene plate
[6] = Table S2: ATCC 25922 FDA Control, MHB, non-treated polystyrene 96-well plate
[7] = Table S2: MB4827 K12, CaMHB, non-treated polystyrene plate
[8] = Table S2: MB4827 K12, MHB, non-treated polystyrene plate
[9] = Escherichia coli, ATCC25922, read-out: E. coli MIC, Table S2: ATCC 25922 FDA Control, CaMHB, non-treated polystyrene plate
[10] = Escherichia coli, ATCC25922, read-out: E. coli MIC, Table S2: ATCC 25922 FDA Control, MHB, non-treated polystyrene 96-well plate
[11] = Escherichia coli, read-out: E. coli MIC, Table S2: CGSC7139 DC2 mutant, CaMHB, non-treated polystyrene plate
[12] = Escherichia coli, read-out: E. coli MIC, Table S2: CGSC7139 DC2 mutant, MHB, non-treated polystyrene plate
[13] = Escherichia coli, read-out: E. coli MIC, Table S2: MB4827 K12, CaMHB, non-treated polystyrene plate
[14] = Escherichia coli, read-out: E. coli MIC, Table S2: MB4827 K12, MHB, non-treated polystyrene plate
[15] = Escherichia coli, read-out: E. coli MIC, Table S2: MB4902 LpxC mutant, CaMHB, non-treated polystyrene plate
[16] = Escherichia coli, read-out: E. coli MIC, Table S2: MB4902 LpxC mutant, MHB, non-treated polystyrene plate

Compound | outer membrane damage: fluorescence of probe 9 labelling after treatment (in words) (E. coli ATCC 25922) | E. coli MIC (E. coli; [1]) [µg/mL] | E. coli MIC (E. coli; [2]) [µg/mL] | E. coli MIC (E. coli; [3]) [µg/mL] | E. coli MIC (E. coli; [4]) [µg/mL] | MIC (E. coli; [11]) [µg/mL] | MIC (E. coli; [12]) [µg/mL] | MIC (E. coli; [15]) [µg/mL] | MIC (E. coli; [16]) [µg/mL] | further results
CN[C@H](CC(C)C)C(=O)N[C@H]1C(=O)N[C@@H](CC(N)=O)C(=O)N[C@H]2C(=O)N[C@H]3C(=O)N[C@H](C(=O)N[C@H](C(=O)O)c4cc(O)cc(O)c4-c4cc3ccc4O)[C@H](O)c3ccc(c(Cl)c3)Oc3cc2cc(c3O[C@@H]2O[C@H](CO)[C@@H](O)[C@H](O)[C@H]2O[C@H]2C[C@](C)(N)[C@H](O)[C@H](C)O2)Oc2ccc(cc2Cl)[C@H]1O [1 Vancomycin, Vancomycin] |  |  |  |  |  |  |  |  |  | MIC (E. coli; 3 h): > 64 µg/mL
CCCCCCC[C@@H](O)CC(=O)N[C@H](CCN)C(=O)N[C@H]1CCNC(=O)[C@H](CC(C)C)NC(=O)[C@H](CCN)NC(=O)[C@H](CCN)NC(=O)[C@H](CC(C)C)NC(=O)[C@@H](Cc2ccccc2)NC(=O)[C@H](CCN)NC1=O [Octapeptin C4] ({Decanoyl(3R-OH)}-[dDab][Dab][Dab][dF]L[Dab][Dab]L; lactam 2-C (inferred); N-terminus assumed) | substantially higher concentrations before membrane damage was seen | 2 to 8 | 1 to 2 | 2 | 2 |  |  |  |  | 
Polymyxin B |  |  |  | 0.03 to 0.06 | 0.03 to 0.06 |  |  |  |  | E. coli MIC (E. coli; ATCC 29522, NBS 96-well plates (Table 2)): 0.06 µg/mL; E. coli MIC (E. coli; CFT073, NBS plates (Table 2)): ≤0.03 µg/mL; E. coli MIC (E. coli; CFT073 WaaL mutant, NBS plates (Table 2)): ≤0.03 µg/mL; E. coli MIC (E. coli; DC2 mutant, NBS plates (Table 2)): ≤0.03 µg/mL; E. coli MIC (E. coli; LpxC mutant, NBS plates (Table 2)): ≤0.03 µg/mL; E. coli MIC (E. coli; MB4827 K12, NBS plates (Table 2)): ≤0.03 µg/mL; E. coli MIC (E. coli; [5]): 0.125 µg/mL; E. coli MIC (E. coli; [6]): 0.125 µg/mL; E. coli MIC (E. coli; [7]): 0.125 µg/mL; E. coli MIC (E. coli; [8]): 0.125 µg/mL
CC[C@H](C)[C@@H]1NC(=O)CNC(=O)[C@H](CCCNC(=N)N)NC(=O)[C@H](Cc2ccc(O)cc2)NC(=O)[C@@H]2CSSC[C@H](NC1=O)C(=O)N[C@@H](Cc1ccc(O)cc1)C(=O)N[C@@H](CCCNC(=N)N)C(=O)N[C@@H](CCCNC(=N)N)C(=O)N[C@H](C(=O)N[C@@H](CCCNC(=N)N)C(N)=O)CSSC[C@H](NC(=O)[C@H](Cc1c[nH]c3ccccc13)NC(=O)[C@@H](N)CCCCN)C(=O)N[C@@H](Cc1ccccc1)C(=O)N[C@@H](CCCNC(=N)N)C(=O)N[C@@H](C(C)C)C(=O)N2 [Tachyplesin-1] (H-KWCFRVCYRGICYRRCR-NH2; disulfide 3-16, 7-12 (inferred); N-terminus and C-terminus assumed) | increased fluorescence at the lowest concentrations |  |  |  |  |  |  |  |  | 
CNC(C)C1CCC(N)C(OC2C(N)CC(N)C(OC3OCC(C)(O)C(NC)C3O)C2O)O1 (centres unmarked) [Gentamicin sulfate] |  |  |  |  |  | 0.5 to 2 | 0.5 to 4 | 0.25 to 0.5 | 0.25 to 0.5 | MIC (E. coli; [9]): 1 µg/mL; MIC (E. coli; [10]): 2 µg/mL; MIC (E. coli; [13]): 0.5 to 1 µg/mL; MIC (E. coli; [14]): 0.5 to 1 µg/mL
CC(C)[C@@H]1NC(=O)CNC(=O)[C@H](CC(N)=O)NC(=O)[C@H](CCCNC(=N)N)NC(=O)[C@H](Cc2ccc(O)cc2)NC(=O)[C@H](C(C)C)NC(=O)[C@@H]2CSSC[C@H](NC(=O)[C@H](C(C)C)NC(=O)[C@H](CCCNC(=N)N)NC1=O)C(=O)N[C@@H](Cc1ccc(O)cc1)C(=O)N[C@@H](CCCNC(=N)N)C(=O)N[C@@H](CCCNC(=N)N)C(=O)N[C@H](C(=O)N[C@@H](CC(N)=O)C(=O)O)CSSC[C@H](NC(=O)[C@H](Cc1ccccc1)NC(=O)CN)C(=O)N[C@@H](Cc1c[nH]c3ccccc13)C(=O)N[C@@H](Cc1ccc(O)cc1)C(=O)N[C@@H](C(C)C)C(=O)N2 [Arenicin-3] (H-GFCWYVCVYRNGVRVCYRRCN-OH; disulfide 3-20, 7-16; N-terminus and C-terminus assumed) | increased fluorescence at the lowest concentrations | 2 to 8 | 2 to 8 | 1 | 1 to 2 |  |  |  |  | 
CC[C@H](C)[C@H](NC(=O)[C@@H](NC(=O)[C@H](CO)NC(=O)[C@H](C)NC(=O)[C@@H](NC(=O)[C@H](CCCCN)NC(=O)[C@H](CCCCN)NC(=O)[C@@H](NC(=O)[C@@H](NC(=O)[C@H](CC(=O)O)NC(=O)[C@H](Cc1ccccc1)NC(=O)[C@H](CC(C)C)NC(=O)CN)C(C)C)[C@@H](C)CC)C(C)C)C(C)C)C(=O)NCC(=O)NCC(=O)N[C@@H](CC(C)C)C(N)=O [Citropin 1.1] (H-GLFDVIKKVASVIGGL-NH2; N-terminus and C-terminus assumed) | substantially higher concentrations before membrane damage was seen |  |  |  |  |  |  |  |  | 
Colistin sulfate |  | 0.125 to 0.25 | 0.125 | 0.03 to 0.06 | 0.03 to 0.06 |  |  |  |  | E. coli MIC (E. coli; [5]): 0.25 µg/mL; E. coli MIC (E. coli; [6]): 0.25 µg/mL; E. coli MIC (E. coli; [7]): 0.06 to 0.25 µg/mL; E. coli MIC (E. coli; [8]): 0.06 to 0.125 µg/mL
COc1cc(Cc2cnc(N)nc2N)cc(OC)c1OC [Trimethoprim] |  |  |  |  |  | 0.25 to 0.5 (≈ 0.861 to 1.72 µM) | 0.25 to 0.5 (≈ 0.861 to 1.72 µM) | 0.5 to 1 (≈ 1.72 to 3.44 µM) | 0.5 to 1 (≈ 1.72 to 3.44 µM) | E. coli MIC (E. coli): 1 to 2 µg/mL; MIC (E. coli; Escherichia coli, ATCC25922, read-out: E. coli MIC): 1 µg/mL (≈ 3.44 µM); MIC (E. coli; Escherichia coli, read-out: E. coli MIC): 0.5 µg/mL (≈ 1.72 µM)
CC[C@H]1OC(=O)[C@H](C)[C@@H](O[C@H]2C[C@@](C)(OC)[C@@H](O)[C@H](C)O2)[C@H](C)[C@@H](O[C@@H]2O[C@H](C)C[C@H](N(C)C)[C@H]2O)[C@](C)(O)C[C@@H](C)C(=O)[C@H](C)[C@@H](O)[C@]1(C)O [Erythromycin] |  |  |  |  |  | > 64 | > 64 | 8 (≈ 10.9 µM) | 8 (≈ 10.9 µM) | MIC (E. coli; [9]): 64 µg/mL (≈ 87.2 µM); MIC (E. coli; [10]): 64 µg/mL (≈ 87.2 µM); MIC (E. coli; [13]): > 64 µg/mL; MIC (E. coli; [14]): 64 µg/mL (≈ 87.2 µM)

— publication PMC10102067, “Synthesis of vancomycin fluorescent probes that retain antimicrobial activity, identify Gram-positive bacteria, and detect Gram-negative outer membrane damage” (Communications Biology, 2023)
